Test [1] is described as follows: Inhibition of hedgehog/GLI1-mediated transcriptional activity in human HaCaT cells after 12 hrs by luciferase assay. It is filed as cell-based.
Test [2] in a line: Cytotoxicity against human PANC1 cells after 24 hrs by FMCA. It is filed as functional, cell-based. Particulars: PANC-1, 24 h.
Test [3] concerns DU-145. Put plainly: Cytotoxicity against human DU145 cells after 24 hrs by FMCA. It is filed as functional, cell-based. The note with it: DU-145, 24 h.
In test [4] the test system is MCF7. As to the kind of experiment: Cytotoxicity against human MCF7 cells after 24 hrs by FMCA. It is filed as functional, cell-based. The note with it: MCF7, 24 h.
Test [5] can be described thus: Cytotoxicity against mouse C3H10T1/2 cells after 24 hrs by FMCA. It is filed as cell-based. Particulars: C3H 10T1/2, 24 h.
Test [6] deals with HaCaT. As to the kind of experiment: Inhibition of PTCH expression in human HaCaT cells expressing GLI1 at 1.5 uM after 12 hrs by Western blotting. It is filed as functional, cell-based. (Immunoblotting shows a protein as a band on a membrane.)
The test system of test [7] is HaCaT. Put plainly: Inhibition of BCL-2 expression in human HaCaT cells expressing GLI1 at 1.5 uM after 12 hrs by Western blotting. It is filed as functional, cell-based.
In test [8] the test system is PANC-1. Put plainly: Inhibition of PTCH expression in human PANC1 cells at 1 uM after 12 hrs by Western blotting. It is filed as functional, cell-based.
The subject of test [9] is PANC-1. Put plainly: Inhibition of BCL-2 expression in human PANC1 cells at 1 uM after 12 hrs by Western blotting. It is filed as functional, cell-based.
Test [10] deals with T1, Zinc finger protein GLI1 (Homo sapiens) (UniProt P08151).
T1 sequence (whole entry): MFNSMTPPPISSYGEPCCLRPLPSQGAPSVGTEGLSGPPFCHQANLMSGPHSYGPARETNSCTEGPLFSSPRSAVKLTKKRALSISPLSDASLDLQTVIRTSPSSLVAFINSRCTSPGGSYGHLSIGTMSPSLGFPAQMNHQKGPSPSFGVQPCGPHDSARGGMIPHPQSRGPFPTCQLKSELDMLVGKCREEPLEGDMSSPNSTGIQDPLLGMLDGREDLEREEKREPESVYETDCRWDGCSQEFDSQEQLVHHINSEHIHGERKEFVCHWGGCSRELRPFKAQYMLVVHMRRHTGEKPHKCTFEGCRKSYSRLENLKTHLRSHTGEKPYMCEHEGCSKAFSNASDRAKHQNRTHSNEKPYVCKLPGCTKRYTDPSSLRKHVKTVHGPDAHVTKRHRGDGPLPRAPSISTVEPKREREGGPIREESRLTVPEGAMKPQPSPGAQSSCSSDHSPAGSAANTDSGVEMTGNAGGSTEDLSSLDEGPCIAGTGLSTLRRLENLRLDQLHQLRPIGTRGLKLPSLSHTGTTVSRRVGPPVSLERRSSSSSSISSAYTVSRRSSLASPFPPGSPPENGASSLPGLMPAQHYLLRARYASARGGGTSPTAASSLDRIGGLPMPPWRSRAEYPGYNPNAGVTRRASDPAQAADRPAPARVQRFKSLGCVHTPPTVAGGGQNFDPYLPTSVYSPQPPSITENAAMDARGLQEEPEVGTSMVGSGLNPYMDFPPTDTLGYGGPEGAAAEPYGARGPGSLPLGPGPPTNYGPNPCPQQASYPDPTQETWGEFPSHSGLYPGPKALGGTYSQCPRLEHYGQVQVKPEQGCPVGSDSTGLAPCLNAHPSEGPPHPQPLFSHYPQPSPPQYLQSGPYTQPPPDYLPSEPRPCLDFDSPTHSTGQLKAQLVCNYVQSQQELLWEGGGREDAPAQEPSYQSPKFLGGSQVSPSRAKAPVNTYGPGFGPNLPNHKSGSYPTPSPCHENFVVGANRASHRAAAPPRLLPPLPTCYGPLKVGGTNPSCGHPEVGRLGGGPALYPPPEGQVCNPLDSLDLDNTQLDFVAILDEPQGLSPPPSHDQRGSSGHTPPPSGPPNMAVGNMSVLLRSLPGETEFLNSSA
Put plainly: Inhibition of GST-GLI1 (unknown origin) interaction with DNA assessed as reduction of protein-DNA complex level at 100 uM after 20 mins by electrophoretic mobility shift assay.

Test [11] has as its system PANC-1. As to the kind of experiment: Inhibition of PTCH expression in human PANC1 cells at 5 uM after 12 hrs by Western blotting. It is filed as functional, cell-based.
The subject of test [12] is PANC-1. Put plainly: Inhibition of BCL-2 expression in human PANC1 cells at 5 uM after 12 hrs by Western blotting. It is filed as functional, cell-based.

Calls of active or inactive are those of the source. No cut-off for these calls is given here.

Turning to `CC1=C(CO)C(=O)O[C@@H]([C@@H](C)[C@H]2CC[C@H]3[C@@H]4C[C@H]5O[C@]56[C@@H](O)C=CC(=O)[C@]6(C)[C@H]4CC[C@]23C)C1` [WITHAFERIN A], the IC50 came to 0.5 µM in [1]; 1.6 µM in test [2]; 2.5 µM in test [3]; 6.3 µM in [4]; 4.9 µM in [5]. Besides, the inhibition entry in [6], in test [7], in test [8], in test [9] and in test [10] was “Active” each time.

As to `CC1=C(CO)C(=O)O[C@@H]([C@@H](C)[C@H]2CC[C@H]3[C@@H]4C[C@H]5O[C@]56[C@@H](O)[C@@H](OS(=O)(=O)O)CC(=O)[C@]6(C)[C@H]4CC[C@]23C)C1`, the IC50 is 2.2 µM in [1]; 14.8 µM in [2]; 21.7 µM in test [3]; 17.9 µM in test [4]; 21 µM in test [5].

For the compound `CC1=C(CO)C(=O)O[C@@H]([C@@H](C)[C@H]2CC[C@H]3[C@@H]4C[C@H]5O[C@]56[C@@H](O)CCC(=O)[C@]6(C)[C@H]4CC[C@]23C)C1`, the IC50 was 14.8 µM in test [1]; greater than 25 µM in test [2]; greater than 25 µM in test [3]; greater than 25 µM in [4]; greater than 25 µM in test [5]. Further, in test [10], the inhibition entry was “Active”.

Consider `CO[C@H]1CC(=O)[C@]2(C)[C@H]3CC[C@]4(C)[C@@H]([C@H](C)[C@H]5CC(C)=C(CO)C(=O)O5)CC[C@H]4[C@@H]3C[C@H]3O[C@]32[C@H]1O`, for which the IC50 in test [1], in test [2], in test [3], in [4] and in [5] was greater than 25 µM in each case.

As for `CC1=C(C)C(=O)O[C@@H]([C@@H](C)[C@H]2CC[C@H]3[C@@H]4C[C@H]5O[C@]56[C@@H](O)C=CC(=O)[C@]6(C)[C@H]4CC[C@]23C)C1`, the IC50 came to 0.6 µM in test [1]; 1.1 µM in test [2]; 1.8 µM in test [3]; 2.8 µM in test [4]; 4.1 µM in [5]. The inhibition result in test [6], in test [7], in test [11] and in test [12] was “Active” each time.

Take `CC1=C(CO)C(=O)O[C@@H]([C@@H](C)[C@H]2CC[C@H]3[C@@H]4CC=C5[C@@H](O)C=CC(=O)[C@]5(C)[C@H]4CC[C@]23C)C1`: the IC50 in [1] is 1.8 µM; in [2], 11.9 µM; in [3] it was 10.6 µM; in test [4] it was 22.6 µM; in test [5] it was greater than 25 µM.

Broadly, the IC50 is the midpoint of a concentration-inhibition curve. A lower IC50 goes with inhibition by little substance.

The values above are taken from ChEMBL document CHEMBL3603818, “Hedgehog inhibitors from Withania somnifera” (Bioorg Med Chem Lett, 2015).
